# Key:
# [1] = system: cGMP-dependent protein kinase; details: vs cAMP-dependent protein kinase; cited from earlier work
# [2] = system: neutrophil infiltration of lung graft; experiment: lung graft myeloperoxidase assay, cGMP series; assay type: in vivo, rat; details: 6 h in EC then transplantation
# Procedure: Thirty minutes following restoration of blood flow, transplanted lungs were excised, rinsed briskly in physiologic saline, and snap frozen in liquid nitrogen until the time of assay. These lungs were then homogenized in phosphate buffer (50 mM; pH 6.0, 5 ml/gm of tissue) containing hexadecyltrimethylammonium bromide (0.5%; HTAB, [Sigma]) and frozen at -80° C. The myeloperoxidase assay was performed, as described^32, by thawing the sample, centrifuging at 40,000 g for 15 minutes at 4° C., and decanting the supernatant, which was assayed for myeloperoxidase activity using standard chromogenic spectrophotometric technique: test sample (0.03 ml) was added to sample buffer (0.97 ml of 50 mM phosphate buffer, pH 6.0) containing O-dianisidine dihydrochloride (Sigma), hydrogen peroxide (0.006%), and change in absorbance at 460 nm was measured over 1 min (increase in OD was linear over this time interval).
# [3] = system: nitric oxide production in heart; experiment: direct measurement of coronary vascular and endocardial NO with porphyrinic microsensor; design: species or system rat; details: transplanted hearts
# Procedure: Direct measurement of coronary vascular and endocardial nitric oxide synthesis were made with a porphyrinic microsensor^13 using differential pulse voltammetry or amperometry. Rat hearts were explanted and preserved as described above, and studied fresh (no preservation/transplantation) or after hypothermic preservation in lactated Ringer's (LR) solution, heterotopic transplantation, and 10 minutes of reperfusion. The coronary vasculature was flushed free of blood with LR followed by 4 ml of LR supplemented with L-Arg (2 mM) and bradykinin ([…], Sigma), which was recycled (1 ml/min) through the coronary vasculature by flushing down the cross-clamped aortic root. Aliquots of perfusate were immediately transferred to an anaerobic environment for measurements and compared to an aqueous nitric oxide reference. Differential pulse voltammograms were obtained using a sensor (working electrode), saturated calomel electrode reference, and platinum wire-auxiliary electrode, with a pulse amplitude of 40 mV. Endocardial NO was measured by implanting the sensor in the septal endocardium of a freshly explanted or preserved/transplanted heart, and after the baseline stabilization, […] bradykinin was applied and NO release continuously monitored by amperometry at constant potential of 0.63 V.
# heart = details: in vivo; cited from earlier work
# [4] = system: neutrophil accumulation in lung graft; experiment: lung graft myeloperoxidase, nitroglycerin series; assay type: in vivo, rat; details: NTG 0.1 mg/mL in EC, 6 h
# Procedure: Thirty minutes following ligation of the native right pulmonary artery, or at the time of recipient death, transplanted lungs were removed, rinsed briskly in physiologic saline, and snap frozen in liquid nitrogen until the time of myeloperoxidase or TBARs assay.
# Tissue was homogenized in phosphate buffer (50 mM, pH 5.5, 5 ml/gm of tissue) containing hexadecyltrimethyl ammonium bromide (0.5%, Sigma). The assay was performed, as previously described^35, by thawing the sample, centrifuging at 40,000 g for 15 minutes, and decanting the supernatant, which was assayed for myeloperoxidase activity using a standard chromogenic spectrophotometric technique in which test sample (0.03 mL) was added to phosphate buffer (0.97 mL) containing O-dianisidinedihydrochloride (Sigma) and hydrogen peroxide (0.0005%), and change in absorbance at 460 nm was measured over 1 minute (increase in OD was linear over this time interval).
# cGMP = experiment: tissue cGMP levels (radioimmunoassay, unpublished); details: NTG in preservation solution
# [5] = system: neutrophil infiltration of cardiac graft; experiment: graft myeloperoxidase activity/histology, nitric oxide series; assay type: in vivo, rat; details: 12 h; NTG 0.1 mg/ml in LR
# Procedure: Ten minutes following restoration of blood flow, transplanted hearts were excised and the aortic root was flushed for 5 minutes (rate of 2 ml/minute controlled by roller pump) with normal saline (Baxter, Edison, N.J.), the atria and great vessels were removed, and intracavitary blood was evacuated. Remaining ventricular pieces were weighed, homogenized, and myeloperoxidase activity measured as described^10. For histologic study, cardiac graft samples were fixed in an ascending series of aldehydes, embedded, sectioned, and stained with hematoxylin and eosin.
# lung = experiment: orthotopic rat left lung transplantation, nitroglycerin series; assay type: in vivo, rat (male Lewis)
# [6] = system: nitric oxide in expired air; details: in vivo; cited from earlier work
# [7] = 6 h in EC, NTG 0.1 mg/mL where added
SMILES,times more potent at stimulating cGMP- than cAMP-dependent protein kinase [1],myeloperoxidase activity (dAbs 460 nm/min) [2],effect on NO levels [3],effect in cardiac ischemia models (heart),graft neutrophil accumulation [4],tissue cGMP levels (cGMP),neutrophil infiltration [5],pulmonary artery flushing time (lung; 30 mL at constant pressure during harvest),"recipient survival (lung; 6 h in EC, 30 min, supplements NTG 0.1 mg/mL, hydralazine 0.02 μg/mL)",arterial oxygenation (lung; [7]),pulmonary arterial flow (lung; [7]),pulmonary vascular resistance (lung; [7]),concentration of maximal beneficial effect (lung; range 0.001 to 0.1 mg/mL),nitric oxide in expired air [6]
"Nc1nc2c(nc(Br)n2[C@@H]2O[C@@H]3COP(=O)(O)O[C@H]3[C@H]2O)c(=O)[nH]1 [8-Br-cGMP, 8-bromoguanosine-3'5' cyclic monophosphate]",500 times,1.75±0.13 dAbs 460 nm/min,did not alter NO levels,–,–,–,–,–,–,–,–,–,–,–
"O=[N+]([O-])OCC(CO[N+](=O)[O-])O[N+](=O)[O-] [NTG, nitroglycerin]",–,–,–,blunt myocardial injury and neutrophil accumulation during reperfusion,significant decline in both neutrophil and platelet accumulation,augments tissue cGMP levels,marked decrease in neutrophil infiltration,86.4 ± 4.9 s,100%,501±31 mm Hg,21.4 ± 2.9 mL/min,1.4±0.1 ×10^3 Woods units,0.1 mg/mL,increase nitric oxide in expired air

# From patent US5552267A, “Solution for prolonged organ preservation” (priority 1994, dated 1996)
